Measurements as given in patent US11981658B2, “Substituted aminopyridine compounds as EGFR inhibitors” (YUHAN CORPORATION, priority 2021, dated 2024).
Read-outs that look alike come from different tables or passages of the source.

How the values were obtained:
[1] = target: EGFR Del19/C797S (Homo sapiens, UniProt P00533, C797S/DEL746-750); assay: Biochemical EGFR kinase inhibition assay (Lance Ultra TR-FRET), double mutant del19/C797S
Method in brief: (§1)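 In this biochemical assay, phosphorylation after a one-hour room-temperature reaction was detected with europium-labelled anti-phosphopeptide antibody at 2 nM final concentration.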

[2] = target: EGFR wildtype (WT) (Homo sapiens, UniProt P00533); assay: Biochemical EGFR kinase inhibition assay (Lance Ultra TR-FRET), wildtype
EGFR wildtype (WT), sequence (P00533 25-1210): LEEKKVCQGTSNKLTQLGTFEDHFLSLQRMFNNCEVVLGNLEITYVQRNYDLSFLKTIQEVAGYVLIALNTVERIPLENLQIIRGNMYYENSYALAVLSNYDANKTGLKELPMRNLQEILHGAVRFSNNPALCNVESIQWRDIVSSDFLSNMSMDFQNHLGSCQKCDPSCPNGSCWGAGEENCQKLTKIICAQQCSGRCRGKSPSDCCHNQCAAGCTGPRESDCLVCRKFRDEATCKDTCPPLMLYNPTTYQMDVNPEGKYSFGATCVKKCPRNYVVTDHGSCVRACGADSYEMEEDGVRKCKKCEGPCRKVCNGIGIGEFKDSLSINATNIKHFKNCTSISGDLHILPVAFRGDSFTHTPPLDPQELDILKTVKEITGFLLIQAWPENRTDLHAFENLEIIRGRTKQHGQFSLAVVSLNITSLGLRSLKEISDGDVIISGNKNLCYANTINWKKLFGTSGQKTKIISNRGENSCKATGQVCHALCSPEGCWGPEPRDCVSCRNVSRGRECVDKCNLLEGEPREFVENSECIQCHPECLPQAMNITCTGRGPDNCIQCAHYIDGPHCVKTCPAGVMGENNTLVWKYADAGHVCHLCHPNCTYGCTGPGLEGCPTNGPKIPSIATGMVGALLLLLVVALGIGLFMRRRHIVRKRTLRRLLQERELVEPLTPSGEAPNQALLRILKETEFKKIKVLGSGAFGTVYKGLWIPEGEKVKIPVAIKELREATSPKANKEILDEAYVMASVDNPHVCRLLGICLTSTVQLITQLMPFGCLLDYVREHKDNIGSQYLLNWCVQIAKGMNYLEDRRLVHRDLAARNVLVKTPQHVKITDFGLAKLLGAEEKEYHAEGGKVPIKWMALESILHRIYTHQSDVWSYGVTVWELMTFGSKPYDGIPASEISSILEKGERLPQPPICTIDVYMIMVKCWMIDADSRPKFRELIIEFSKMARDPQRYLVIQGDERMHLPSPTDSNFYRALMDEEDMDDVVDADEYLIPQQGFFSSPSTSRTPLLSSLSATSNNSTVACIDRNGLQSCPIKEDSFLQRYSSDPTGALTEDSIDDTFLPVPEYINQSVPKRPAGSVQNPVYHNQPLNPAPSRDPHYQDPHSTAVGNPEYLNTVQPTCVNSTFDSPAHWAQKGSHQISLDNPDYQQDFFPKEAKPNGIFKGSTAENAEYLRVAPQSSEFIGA
Method in brief: as §1

[3] = target: EGFR L858R/C797S (Homo sapiens, UniProt P00533, C797S/L858R); assay: Biochemical EGFR kinase inhibition assay (Lance Ultra TR-FRET), double mutant L858R/C797S
EGFR L858R/C797S, sequence (P00533 25-1210 C797S/L858R): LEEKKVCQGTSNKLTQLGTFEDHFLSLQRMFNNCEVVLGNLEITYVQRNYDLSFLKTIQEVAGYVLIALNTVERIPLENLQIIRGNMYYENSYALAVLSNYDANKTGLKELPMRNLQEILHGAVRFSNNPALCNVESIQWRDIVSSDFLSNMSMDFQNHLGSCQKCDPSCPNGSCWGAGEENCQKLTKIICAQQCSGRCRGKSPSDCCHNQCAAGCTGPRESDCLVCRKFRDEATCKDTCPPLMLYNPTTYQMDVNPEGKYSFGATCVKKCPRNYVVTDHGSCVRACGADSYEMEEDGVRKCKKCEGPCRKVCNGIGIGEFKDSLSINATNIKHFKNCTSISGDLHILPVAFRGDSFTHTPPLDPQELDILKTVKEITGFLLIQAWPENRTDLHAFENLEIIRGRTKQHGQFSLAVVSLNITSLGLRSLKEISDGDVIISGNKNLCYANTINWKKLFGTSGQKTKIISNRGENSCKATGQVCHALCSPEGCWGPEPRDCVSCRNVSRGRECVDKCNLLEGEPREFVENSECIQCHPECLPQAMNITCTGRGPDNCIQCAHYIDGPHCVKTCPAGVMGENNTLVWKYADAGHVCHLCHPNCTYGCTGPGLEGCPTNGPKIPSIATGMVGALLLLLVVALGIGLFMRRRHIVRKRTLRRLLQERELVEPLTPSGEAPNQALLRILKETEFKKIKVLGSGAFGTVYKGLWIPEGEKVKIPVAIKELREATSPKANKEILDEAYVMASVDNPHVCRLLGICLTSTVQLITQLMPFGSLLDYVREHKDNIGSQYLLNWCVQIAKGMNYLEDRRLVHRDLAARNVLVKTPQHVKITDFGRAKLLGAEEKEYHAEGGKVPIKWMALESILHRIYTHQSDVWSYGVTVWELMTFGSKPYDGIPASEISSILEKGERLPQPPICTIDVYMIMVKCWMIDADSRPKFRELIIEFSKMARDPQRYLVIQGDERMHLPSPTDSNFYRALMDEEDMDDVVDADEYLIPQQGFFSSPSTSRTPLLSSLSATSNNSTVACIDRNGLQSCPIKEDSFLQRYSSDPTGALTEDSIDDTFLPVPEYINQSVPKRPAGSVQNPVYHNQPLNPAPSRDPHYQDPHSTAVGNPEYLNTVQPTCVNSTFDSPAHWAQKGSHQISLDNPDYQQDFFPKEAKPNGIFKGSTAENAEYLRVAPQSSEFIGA
Method in brief: as §1

[4] = target: EGFR Del19/T790M/C797S (Homo sapiens, UniProt P00533, C797S/DEL746-750/T790M); assay: Biochemical EGFR kinase inhibition assay (Lance Ultra TR-FRET), triple mutant del19/T790M/C797S
Method in brief: as §1

[5] = target: EGFR L858R/T790M/C797S (Homo sapiens, UniProt P00533, C797S/L858R/T790M); assay: Biochemical EGFR kinase inhibition assay (Lance Ultra TR-FRET), triple mutant L858R/T790M/C797S
EGFR L858R/T790M/C797S, sequence (P00533 25-1210 T790M/C797S/L858R): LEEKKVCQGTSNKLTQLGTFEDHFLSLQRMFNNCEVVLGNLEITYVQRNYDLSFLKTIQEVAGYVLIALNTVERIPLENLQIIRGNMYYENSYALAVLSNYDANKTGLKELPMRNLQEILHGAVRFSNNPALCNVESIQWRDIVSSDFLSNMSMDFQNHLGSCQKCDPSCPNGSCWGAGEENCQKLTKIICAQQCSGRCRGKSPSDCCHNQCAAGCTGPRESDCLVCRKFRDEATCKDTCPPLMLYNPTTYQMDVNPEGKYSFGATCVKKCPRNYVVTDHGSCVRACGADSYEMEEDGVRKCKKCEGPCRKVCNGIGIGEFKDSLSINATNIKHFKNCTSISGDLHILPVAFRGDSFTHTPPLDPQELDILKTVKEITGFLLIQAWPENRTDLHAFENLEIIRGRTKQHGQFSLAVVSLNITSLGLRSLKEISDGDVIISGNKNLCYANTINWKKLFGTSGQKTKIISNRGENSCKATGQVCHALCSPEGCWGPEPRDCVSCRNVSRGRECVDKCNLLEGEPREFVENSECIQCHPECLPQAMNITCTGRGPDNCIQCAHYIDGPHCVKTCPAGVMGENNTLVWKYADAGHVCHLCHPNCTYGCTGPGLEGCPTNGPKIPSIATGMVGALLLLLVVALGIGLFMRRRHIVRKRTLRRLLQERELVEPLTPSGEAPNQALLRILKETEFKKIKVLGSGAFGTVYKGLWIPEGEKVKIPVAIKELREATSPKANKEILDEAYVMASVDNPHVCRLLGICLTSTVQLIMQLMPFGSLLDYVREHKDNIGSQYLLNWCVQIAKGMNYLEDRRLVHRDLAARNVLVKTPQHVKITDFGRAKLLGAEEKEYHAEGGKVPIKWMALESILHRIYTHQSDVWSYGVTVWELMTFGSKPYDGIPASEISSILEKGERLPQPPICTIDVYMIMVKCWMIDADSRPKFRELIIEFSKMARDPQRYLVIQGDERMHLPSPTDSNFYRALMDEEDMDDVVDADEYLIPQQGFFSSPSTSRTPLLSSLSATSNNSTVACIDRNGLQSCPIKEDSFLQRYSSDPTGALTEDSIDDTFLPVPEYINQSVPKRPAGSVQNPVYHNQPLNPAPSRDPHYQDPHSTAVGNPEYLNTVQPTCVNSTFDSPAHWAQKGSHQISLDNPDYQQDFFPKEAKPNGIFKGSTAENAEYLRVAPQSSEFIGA
Method in brief: as §1

[6] = IC50 Del19/C797S (nM), 100 μM ATP
[7] = Km ATP, read-out: IC50 Del19/C797S (nM), Km ATP
[8] = Km ATP, read-out: IC50 WT (nM), Km ATP
[9] = IC50 L858R/C797S (nM), 100 μM ATP
[10] = Km ATP, read-out: IC50 L858R/C797S (nM), Km ATP
[11] = IC50 Del19/T790M/C797S (nM), 100 μM ATP
[12] = Km ATP, read-out: IC50 Del19/T790M/C797S (nM), Km ATP
[13] = IC50 L858R/T790M/C797S (nM), 100 μM ATP
[14] = Km ATP, read-out: IC50 L858R/T790M/C797S (nM), Km ATP

EGFR Del19/C797S, sequence (P00533 with tags, fused parts or gaps DEL746-750/C797S): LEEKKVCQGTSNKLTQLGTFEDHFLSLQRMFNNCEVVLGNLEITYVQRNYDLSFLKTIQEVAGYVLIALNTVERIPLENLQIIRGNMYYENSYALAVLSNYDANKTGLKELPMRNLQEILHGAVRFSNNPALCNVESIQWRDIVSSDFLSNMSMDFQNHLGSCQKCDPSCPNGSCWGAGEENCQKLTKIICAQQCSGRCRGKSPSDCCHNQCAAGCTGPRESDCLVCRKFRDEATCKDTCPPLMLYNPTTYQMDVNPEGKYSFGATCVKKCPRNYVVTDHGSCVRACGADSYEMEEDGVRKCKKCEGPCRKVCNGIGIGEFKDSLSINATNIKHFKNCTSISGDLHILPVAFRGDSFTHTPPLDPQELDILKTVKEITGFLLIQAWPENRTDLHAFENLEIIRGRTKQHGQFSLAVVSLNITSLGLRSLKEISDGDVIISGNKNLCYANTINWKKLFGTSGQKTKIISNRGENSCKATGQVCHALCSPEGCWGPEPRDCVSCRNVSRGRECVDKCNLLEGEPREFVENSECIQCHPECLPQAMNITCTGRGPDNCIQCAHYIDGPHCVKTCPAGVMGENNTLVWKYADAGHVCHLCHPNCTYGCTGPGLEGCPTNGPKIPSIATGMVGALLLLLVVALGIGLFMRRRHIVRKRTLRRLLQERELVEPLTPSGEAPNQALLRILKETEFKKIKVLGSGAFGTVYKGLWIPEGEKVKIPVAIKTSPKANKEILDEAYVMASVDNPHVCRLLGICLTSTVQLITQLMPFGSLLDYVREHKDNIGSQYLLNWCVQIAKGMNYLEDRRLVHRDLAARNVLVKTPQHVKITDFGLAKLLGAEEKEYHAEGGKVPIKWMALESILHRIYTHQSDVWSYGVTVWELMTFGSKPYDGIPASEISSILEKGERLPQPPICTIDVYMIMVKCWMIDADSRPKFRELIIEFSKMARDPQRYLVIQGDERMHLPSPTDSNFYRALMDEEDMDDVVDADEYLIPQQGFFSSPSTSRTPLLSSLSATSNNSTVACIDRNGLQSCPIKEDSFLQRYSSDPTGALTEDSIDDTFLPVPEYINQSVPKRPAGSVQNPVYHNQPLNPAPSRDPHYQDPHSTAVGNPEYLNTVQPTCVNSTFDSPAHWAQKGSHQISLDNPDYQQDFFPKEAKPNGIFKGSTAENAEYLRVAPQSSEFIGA

Row | Compound | IC50 [1, 6] | IC50 [1, 7] | IC50 ([2]; IC50 WT (nM), 100 μM ATP) | IC50 [2, 8] | IC50 [3, 9] | IC50 [3, 10] | IC50 [4, 11] | IC50 [4, 12] | IC50 [5, 13] | IC50 [5, 14]
1 | CC1(O)CCC(CNc2cc(Nc3ccnc(-c4cnn(S(=O)(=O)C5CC5)c4)n3)ncc2C#CC2CCCO2)CC1 (stereo not shown) [Example 377, (1 r,4r)-4-(((2-((2-(1-(Cyclopropylsulfonyl)-1H-pyrazol-4-yl)pyrimidin-4-yl)amino)-5-((tetrahydrofuran-2-yl)ethynyl)pyridin-4-yl)amino)methyl)-1-methylcyclohexan-1-ol] | 34.6 nM | 20.3 nM | > 10000 nM | 132 nM | 1550 nM | 52.2 nM | 4.1 nM | 3 nM | 10.6 nM | 1.2 nM
2 | C[C@]1(O)CC[C@H](CNc2cc(Nc3ccnc(-c4cnn(S(=O)(=O)C5CC5)c4)n3)ncc2C#Cc2cnn(CCF)c2)CC1 [Example 380, (1 r,4r)-4-(((2-((2-(1-(Cyclopropylsulfonyl)-1H-pyrazol-4-yl)pyrimidin-4-yl)amino)-5-((1-(2-fluoroethyl)-1H-pyrazol-4-yl)ethynyl)pyridin-4-yl)amino)methyl)-1-methylcyclohexan-1-ol] | 58.7 nM | 32.5 nM | > 10000 nM | 114 nM | 1170 nM | 32.6 nM | 1.5 nM | 2.4 nM | 5.4 nM | 2.6 nM
3 | O=S(=O)(C1CC1)n1cc(-c2nccc(Nc3cc(NC[C@H]4CC[C@H](CO)CC4)c(C#Cc4cnn(CCF)c4)cn3)n2)cn1 [Example 381, ((1 r,4r)-4-(((2-((2-(1-(Cyclopropylsulfonyl)-1H-pyrazol-4-yl)pyrimidin-4-yl)amino)-5-((1-(2-fluoroethyl)-1H-pyrazol-4-yl)ethynyl)pyridin-4-yl)amino)methyl)cyclohexyl)methanol] | 75.5 nM | 33.3 nM | > 10000 nM | 226 nM | 1290 nM | 37.9 nM | 3.1 nM | 2.9 nM | 7.9 nM | 3.4 nM
4 | Cn1cc(C#Cc2cnc(Nc3ccnc(-c4cnn(S(=O)(=O)C5CC5)c4)n3)cc2N2CCC(F)(CNCCF)CC2)cn1 [Example 383, 2-(1-(Cyclopropylsulfonyl)-1H-pyrazol-4-yl)-N-(4-(4-fluoro-4-(((2-fluoroethyl)amino)methyl)piperidin-1-yl)-5-((1-methyl-1H-pyrazol-4-yl)ethynyl)pyridin-2-yl)pyrimidin-4-amine] | 8.2 nM | 3.7 nM | > 10000 nM | 40.8 nM | 86.8 nM | 14.5 nM | 1.2 nM | 1 nM | 1.2 nM | 0.6 nM
5 | CN(C)C[C@@H]1CCCN(c2cc(Nc3ccnc(-c4cnn(S(=O)(=O)C5CC5)c4)n3)ncc2C#Cc2cnn(C)c2)C1 [Example 384, (S)-2-(1-(Cyclopropylsulfonyl)-1H-pyrazol-4-yl)-N-(4-(3-((dimethylamino)methyl)piperidin-1-yl)-5-((1-methyl-1H-pyrazol-4-yl)ethynyl)pyridin-2-yl)pyrimidin-4-amine] | 10.9 nM |  | > 10000 nM |  | 49.6 nM |  | 1.3 nM |  | 3.1 nM | 
6 | CN(C)C[C@@H]1CCCN(c2cc(Nc3ccnc(-c4cnn(S(=O)(=O)C5CC5)c4)n3)ncc2C#Cc2cnn(CCF)c2)C1 [Example 385, (S)-2-(1-(Cyclopropylsulfonyl)-1H-pyrazol-4-yl)-N-(4-(3-((dimethylamino)methyl)piperidin-1-yl)-5-((1-(2-fluoroethyl)-1H-pyrazol-4-yl)ethynyl)pyridin-2-yl)pyrimidin-4-amine] | 11.2 nM |  | > 10000 nM |  | 37.6 nM |  | 0.7 nM |  | 2.1 nM | 
7 | CS(=O)(=O)N1CCC(C#Cc2cnc(Nc3ccnc(-c4cnn(S(=O)(=O)C5CC5)c4)n3)cc2NC[C@H]2CC[C@H](CO)CC2)CC1 [Example 388, ((1r,4r)-4-(((2-((2-(1-(Cyclopropylsulfonyl)-1H-pyrazol-4-yl)pyrimidin-4-yl)amino)-5-((1-(methylsulfonyl)piperidin-4-yl)ethynyl)pyridin-4-yl)amino)methyl)cyclohexyl)methanol] | 127 nM | 33.3 nM | > 10000 nM | 312 nM | 624 nM | 38.6 nM | 6.6 nM | 2.7 nM | 19.3 nM | 2 nM

These reach a lower IC50 [1, 6]. Values come first.

Row | IC50 [1, 6] | IC50 [1, 7] | IC50 ([2]; IC50 WT (nM), 100 μM ATP) | IC50 [2, 8] | IC50 [3, 9] | IC50 [3, 10] | IC50 [4, 11] | IC50 [4, 12] | IC50 [5, 13] | IC50 [5, 14] | Compound
8 | 2.5 nM | 1.4 nM | > 10000 nM | 15.1 nM | 102 nM | 7.8 nM | 0.5 nM | 0.3 nM | 1.1 nM | 3.4 nM | O=S(=O)(C1CC1)n1cc(-c2nccc(Nc3cc(NC4CCC(O)CC4)c(C#CC4CCCO4)cn3)n2)cn1 (stereo not shown) [Example 376, (1s,4s)-4-((2-((2-(1-(Cyclopropylsulfonyl)-1H-pyrazol-4-yl)pyrimidin-4-yl)amino)-5-((tetrahydrofuran-2-yl)ethynyl)pyridin-4-yl)amino)cyclohexan-1-ol]
9 | 1 nM | 0.5 nM | 2900 nM | 3.9 nM | 34 nM | 1.3 nM | 0.3 nM | 0.1 nM | 0.4 nM | 0.1 nM | CC1(CO)CCN(c2cc(Nc3ccnc(-c4cnn(S(=O)(=O)C5CC5)c4)n3)ncc2C#CC2CCCO2)CC1 (stereo not shown) [Example 378, (1-(2-((2-(1-(Cyclopropylsulfonyl)-1H-pyrazol-4-yl)pyrimidin-4-yl)amino)-5-((tetrahydrofuran-2-yl)ethynyl)pyridin-4-yl)-4-methylpiperidin-4-yl)methanol]
10 | 3.9 nM | 1.9 nM | > 10000 nM | 9.7 nM | 30.1 nM | 1.9 nM | 0.7 nM | 0.6 nM | 0.8 nM | 0.4 nM | O=S(=O)(C1CC1)n1cc(-c2nccc(Nc3cc(N[C@H]4CC[C@@H](CO)CC4)c(C#Cc4cnn(CCF)c4)cn3)n2)cn1 [Example 379, ((1s,4s)-4-((2-((2-(1-(Cyclopropylsulfonyl)-1H-pyrazol-4-yl)pyrimidin-4-yl)amino)-5-((1-(2-fluoroethyl)-1H-pyrazol-4-yl)ethynyl)pyridin-4-yl)amino)cyclohexyl)methanol]
11 | 2.9 nM | 2.1 nM | 5000 nM | 10.4 nM | 32.4 nM | 5.5 nM | 0.2 nM | 0.2 nM | 0.4 nM | 0.2 nM | CNCC1(F)CCN(c2cc(Nc3ccnc(-c4cnn(S(=O)(=O)C5CC5)c4)n3)ncc2C#Cc2cnn(C)c2)CC1 [Example 382, 2-(1-(Cyclopropylsulfonyl)-1H-pyrazol-4-yl)-N-(4-(4-fluoro-4-((methylamino)methyl)piperidin-1-yl)-5-((1-methyl-1H-pyrazol-4-yl)ethynyl)pyridin-2-yl)pyrimidin-4-amine]
12 | 1.4 nM | 0.9 nM | 1790 nM | 3 nM | 7.6 nM | 0.9 nM | 0.3 nM | 0.1 nM | 0.4 nM | 0.1 nM | CN(C)CCC1CCCN(c2cc(Nc3ccnc(-c4cnn(S(=O)(=O)C5CC5)c4)n3)ncc2C#Cc2cnn(CCF)c2)C1 (stereo not shown) [Example 386, 2-(1-(Cyclopropylsulfonyl)-1H-pyrazol-4-yl)-N-(4-(3-(2-(dimethylamino)ethyl)piperidin-1-yl)-5-((1-(2-fluoroethyl)-1H-pyrazol-4-yl)ethynyl)pyridin-2-yl)pyrimidin-4-amine]
13 | 4.4 nM | 1.2 nM | > 10000 nM | 9.5 nM | 36.7 nM | 2.7 nM | 0.6 nM | 0.3 nM | 0.7 nM | 0.2 nM | CS(=O)(=O)N1CCC(C#Cc2cnc(Nc3ccnc(-c4cnn(S(=O)(=O)C5CC5)c4)n3)cc2N[C@H]2CC[C@@H](CO)CC2)CC1 [Example 387, ((1s,4s)-4-((2-((2-(1-(Cyclopropylsulfonyl)-1H-pyrazol-4-yl)pyrimidin-4-yl)amino)-5-((1-(methylsulfonyl)piperidin-4-yl)ethynyl)pyridin-4-yl)amino)cyclohexyl)methanol]
14 | 2.1 nM | 0.4 nM | 5200 nM | 4.6 nM | 14.5 nM | 1.6 nM | 0.5 nM | 0.3 nM | 0.7 nM | 0.1 nM | CC1(CO)CCN(c2cc(Nc3ccnc(-c4cnn(S(=O)(=O)C5CC5)c4)n3)ncc2C#CC2CCN(S(C)(=O)=O)CC2)CC1 [Example 389, (1-(2-((2-(1-(Cyclopropylsulfonyl)-1H-pyrazol-4-yl)pyrimidin-4-yl)amino)-5-((1-(methylsulfonyl)piperidin-4-yl)ethynyl)pyridin-4-yl)-4-methylpiperidin-4-yl)methanol]
